Laboratory results published in patent US20250002526A1, “PHARMACEUTICAL COMPOSITION HAVING ANTI-CANCER IMMUNOSTIMULATING EFFECT AND/OR IMMUNE CHECKPOINT INHIBITION POTENTIATING EFFECT” (KYUSHU UNIVERSITY, NATIONAL UNIVERSITY CORPORATION, priority 2021, published 2025).
Entries after “also recorded” stand apart in the source; their conditions may differ. Like-named read-outs stand apart in the source and are kept apart here.

Columns and labels:
[1] = tested on: SULT2B1b-mediated CS production in E0771-SULT cells; test: CS production inhibitory effect in E0771-SULT cells (LC/MS/MS quantification of CS); type: cell-based, mouse; settings: Mus musculus; for activity at 10 µM: relative to control (100%)
Summary of the method: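 Mouse E0771 breast cancer cells expressing SULT2B1b, seeded at 5×10^5 cells/well and cultured 24 h with or without test compound. CS extracted with deuterated internal standards and quantified by LC/MS/MS (ESI, MRM) against calibration curves. Values are % of CS production in untreated cells.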

[2] = tested on: E0771-SULT cells; test: Oral cholenoic acid in mice with transplanted E0771-SULT cells: CS production and CD8+ T cell infiltration in tumor; type: in vivo, mouse
[3] = tested on: E0771-SULT cells; test: Trans-cancer migration assay (CCL21-induced T-cell migration); type: cell-based, mouse; settings: E0771-SULT cells pretreated with cholenoic acid (5 μM)
Excerpt: FIG. 10 is a series of diagrams showing experimental results (6) in Experiment Example 1 (identification of cholenoic acid as a SULT2B1b inhibitor that promotes anti-tumor immunity). […] The data were acquired from two independent experiments, and expressed as mean±SD. * P<0.05; ** P<0.01 (one-way ANOVA followed by Dunnett's post-hoc test). The level of CCL21-induced T-cell migration in E0771-MOCK cells (CCL21+, SULT−) was used as a control for comparison. FIGS. 10B and 10C show results of enzyme kinetic analysis for SULT2B1b inhibition by cholenoic acid (3-OH-5-Chln). SULT2B1b protein (0.3 or 0.6 μM) was preincubated with cholenoic acid (20 or 40 μM) or a vehicle (2% DMSO), and reacted with cholesterol at different concentrations in the presence of 100 μM PAPS (FIG. 10B) or reacted with PAPS at different concentrations in the presence of 10 μM cholesterol (FIG. 10C). The data were fitted to the Michaelis-Menten equation (the left figures in FIGS. 10B and 10C), and their inhibition modes were analyzed with Lineweaver-Burk plots (right figures).
In carrying out the migration assay, T cells were loaded on E0771-MOCK cells (expressing only a vector; SULT−) or E0771-SULT cells (SULT+) seeded on Matrigel in an upper chamber.

C[C@H](CCC(=O)O)[C@H]1CC[C@H]2[C@@H]3CC=C4C[C@@H](O)CC[C@]4(C)[C@H]3CC[C@]12C [Compound 1, (R)-4-((3S,8S,9S,10R,13R,14S,17R)-3-hydroxy-10,13-dimethyl-2,3,4,7,8,9,10,11,12,13,14,15,16,17-tetradecahydro-1H-cyclopenta[a]phenanthren-17-yl)pentanoic acid]
activity at 10 µM ([1]; 24 h, read-out: CS production % activity at 10 μM, E0771-SULT cells, 24 hours, test compound 10 μM (Table 1)): 35.8% | activity at 10 µM ([1]; 24 h, read-out: CS production % activity at 10 μM, E0771-SULT cells, 24 hours, third concentration column of Table 1, head again printed 10 μM): 47.1% | activity at 20 µM ([1]; 24 h, read-out: CS production % activity at 20 μM, E0771-SULT cells, 24 hours, test compound 20 μM, relative to control without compound (100%)): 30.8% | IC50 ([1]; read-out: IC50 value (CS production)): 5.8 µM | CS production in tumor ([2]; oral administration on days 5, 6 and 7, analysed day 8, listed as cholenoic acid): local reduction in CS production; also recorded: locally inhibited | CD8+ T cell infiltration in tumor ([2]; oral administration on days 5, 6 and 7, low CS region on day 8): CD8^+ T cell infiltration was induced | CCL21-induced T-cell migration suppressed by E0771-SULT cells [3]: suppression effect was not observed; also recorded: recovery
